From publication PMC12837263, “β,β-Dimethylacrylalkannin Restores Colistin Efficacy Against mcr- and TCS-Mediated Resistant Gram-Negative Bacteria via Membrane Disturbance” (Antibiotics, 2025)

Legend:
E. coli 13f4(mcr-1) = assay: Checkerboard assay (MIC, FICI); assay type: cell-based; details: E. coli 13f4 (mcr-1); antibiotic + β,β-Dim
Protocol: (§1) The FICI of β,β-Dim–colistin combination was determined by a checkerboard assay. Briefly, two-fold serial dilutions of β,β-Dim and colistin were prepared in a 96-well plate. After incubation at 37 °C for 18 h with bacterial suspension (10^6 CFU/mL), OD600 values were measured. FICI = (MICβ,β-Dim in combination/MICβ,β-Dim) + (MICcolistin in combination/MICcolistin). The synergistic effect of β,β-Dim with other antibiotics was measured in the same way. Synergy was considered to be an FICI ≤ 0.5.

[1] = test system: K. pneumoniae 667(phoP、pmrA、blaKPC); assay: Checkerboard assay (MIC, FICI); assay type: cell-based; details: K. pneumoniae 667 (phoP, pmrA); antibiotic + β,β-Dim
Protocol: as §1

[2] = set-up: method as in PMID 31882661; details: cited from earlier work

Q: For O=C(O)c1cn(C2CC2)c2cc(N3CCNCC3)c(F)cc2c1=O [ciprofloxacin], which “FICI of β,β-Dim combined with the antibiotic” value (“FICI of β,β-Dim combined” for short) (E. coli 13f4(mcr-1)) is on record?
A: The value was over 1.

Q: What about the “FICI of β,β-Dim combined” value [1] of the same compound?
A: The value was over 1.

Q: For CO[C@H]1/C=C/O[C@@]2(C)Oc3c(C)c(O)c4c(O)c(c(/C=N/N5CCN(C)CC5)c(O)c4c3C2=O)NC(=O)/C(C)=C\C=C\[C@H](C)[C@H](O)[C@@H](C)[C@@H](O)[C@@H](C)[C@H](OC(C)=O)[C@@H]1C [rifampicin], which “FICI of β,β-Dim combined” value (E. coli 13f4(mcr-1)) is on record?
A: The value was over 1.

Q: And the “FICI of β,β-Dim combined” value [1]?
A: Its value is over 1.

Q: With CS(=O)(=O)c1ccc([C@@H](O)[C@@H](CF)NC(=O)C(Cl)Cl)cc1 [florfenicol] as the compound, how does the “FICI of β,β-Dim combined” value (E. coli 13f4(mcr-1)) read?
A: The value was over 1.

Q: What about the “FICI of β,β-Dim combined” value [1] of the same compound?
A: Its value is over 1.

Q: Which results are given for CC1(C)S[C@@H]2[C@H](NC(=O)[C@H](N)c3ccccc3)C(=O)N2[C@H]1C(=O)O [ampicillin]?
A: FICI of β,β-Dim combined with the antibiotic (E. coli 13f4(mcr-1)): > 1; FICI of β,β-Dim combined with the antibiotic [1]: > 1

Q: What does the source list for CC[C@H]1OC(=O)C[C@@H](O)[C@H](C)[C@@H](O[C@@H]2O[C@H](C)[C@@H](O[C@H]3C[C@@](C)(O)[C@@H](O)[C@H](C)O3)[C@H](N(C)C)[C@H]2O)[C@@H](CC=O)C[C@@H](C)C(=O)/C=C/C(C)=C/[C@@H]1CO[C@@H]1O[C@H](C)[C@@H](O)[C@@H](OC)[C@H]1OC [tylosin]?
A: FICI of β,β-Dim combined with the antibiotic (E. coli 13f4(mcr-1)): > 1; FICI of β,β-Dim combined with the antibiotic [1]: > 1

Q: Which “FICI of β,β-Dim combined” value (E. coli 13f4(mcr-1)) does the source give for C[C@H]1c2cccc(O)c2C(=O)C2=C(O)[C@]3(O)C(=O)C(C(N)=O)=C(O)[C@@H](N(C)C)[C@@H]3[C@@H](O)[C@@H]21 [doxycycline] here?
A: Its value is over 1.

Q: What about the “FICI of β,β-Dim combined” value [1] of the same compound?
A: Its value is over 1.

Q: For CNC(C)C1CCC(N)C(OC2C(N)CC(N)C(OC3OCC(C)(O)C(NC)C3O)C2O)O1 (stereo not drawn) [gentamicin], which “FICI of β,β-Dim combined” value (E. coli 13f4(mcr-1)) is on record?
A: The value was over 1.

Q: What about the “FICI of β,β-Dim combined” value [1] of the same compound?
A: Its value is over 1.

Q: Which “reduction of colistin MIC by combination with CCCP” value [2] does the source give for N#CC(C#N)=NNc1cccc(Cl)c1 [CCCP, carbonyl cyanide 3-chloro phenyl hydrazone] here?
A: The value was “approximately 8 fold”.
